In US12448388B2, “PRMT5 inhibitors and uses thereof” (Gilead Sciences, Inc., priority 2023, dated 2025):

The compounds below were run on HCT116 MTAP-deleted cell lines (assay: Cell viability assay (CellTiter-Glo, 7 days), HCT116 MTAP-deleted). Conditions: Homo sapiens, HCT-116; cell viability assay, HCT116 MTAP-deleted; class symbols; read-out: CC50.
Type: cell-based
Procedure: Control compounds were analyzed in parallel each time for quality control. In Brief, on Day -1, a serial dilution of stock compounds in DMSO was performed using BioMek liquid handlers and dispensed using Echo acoustic dispenser into 384 well plates. Both tool compounds and sample compounds were spotted in the same plate for a dose response of PRMT5 inhibitors. Compound plates were stored as frozen until the cells were ready for seeding. […] After equilibrating the plate in room temperature, the cells were incubated for 7 days inside the sealed incubator set at 37° C. with 90% humidity and 5% CO2. On Day 7, the viability of cells was measured using a CTG assay kit (CellTitre-Glo;Promega cat no. G7573). Shortly, 40 μl per well of luminescent cell viability assay reagent were dispensed using EL460 liquid dispenser 5 μl cassette. CTG luminescence signal was measured using an EnVision plate reader (PerkinElmer) in accordance with manufacturer's instruction. […] Selectivity with * is artificially high due to limited solubility of the compound hampering accurate measurement of WT CC50.
For `CN(C(=O)c1cc2c(cn1)nc(N)c1cncn12)[C@@H]1COc2cc(C34CC(C(F)(F)F)(C3)C4)ccc21` [Ff-642, (S)-4-amino-N-methyl-N-(6-(3-(trifluoromethyl)bicyclo[1.1.1]pentan-1-yl)-2,3-dihydrobenzofuran-3-yl)imidazo[1,5-a]pyrido[3,4-e]pyrazine-8-carboxamide], the CC50 was 100 to 1000 nM.
Work on `Nc1nc2cc(Cl)c(C(=O)N3CC[C@H]4C[C@@H]3c3ccc(C(F)(F)F)cc3O4)cc2n2cncc12` [Ff-370, (4-amino-7-chloroimidazo[1,5-a]quinoxalin-8-yl)((2S,6R)-9-(trifluoromethyl)-3,4-dihydro-2H-2,6-methanobenzo[b][1,5]oxazocin-5(6H)-yl)methanone] yielded a CC50 of under 100 nM.
In the case of `Cc1ncc2c(N)nc3cnc(C(=O)N4CCC[C@@H]5Oc6cc(OC(F)(F)F)c(F)cc6[C@@H]54)cc3n12` [Ff-376, (4-amino-1-methylimidazo[1,5-a]pyrido[3,4-e]pyrazin-8-yl)((4aS,9bS)-8-fluoro-7-(trifluoromethoxy)-3,4,4a,9b-tetrahydrobenzofuro[3,2-b]pyridin-1(2H)-yl)methanone], the CC50 is reported as under 100 nM.
In the case of `N#C[C@@H]1C[C@H]1c1ccc2c(c1)C[C@H]1OCCN(C(=O)c3cc4c(cc3F)nc(N)c3cncn34)[C@@H]21` [Ff-448, Trans-2-[(4aS,9aR)-4-(4-amino-7-fluoro-imidazo[1,5-a]quinoxaline-8-carbonyl)-3,4a,9,9a-tetrahydro-2H-indeno[2,1-b][1,4]oxazin-7-yl]cyclopropanecarbonitrile], the CC50 is reported as under 100 nM.
`CN(C(=O)c1cc2c(cc1F)nc(N)c1cncn12)[C@@H]1COc2cc([C@H]3C[C@@H]3C#N)ccc21` (single isomer, unassigned) [Ff-481] was tested, and the CC50 was under 100 nM.
With `CN(C(=O)c1cc2c(cc1F)nc(N)c1cncn12)[C@@H]1COc2cc(C3CC(F)(F)C3)ccc21` [Ff-572, (S)-4-amino-N-(6-(3,3-difluorocyclobutyl)-2,3-dihydrobenzofuran-3-yl)-7-fluoro-N-methylimidazo[1,5-a]quinoxaline-8-carboxamide] the CC50 was under 100 nM.
For `Cc1ncc2c(N)nc3cnc(C(=O)N4C[C@H](C)O[C@@H]5Cc6cc(Cl)ccc6[C@@H]54)cc3n12` (single isomer, unassigned) [Ff-464], the CC50 was 100 to 1000 nM.
For `Cc1ncn2c1c(N)nc1cc(Cl)c(C(=O)N(C)[C@@H]3COc4cc(C(F)(F)F)ccc43)cc12` [Ff-492, (S)-4-amino-7-chloro-N,3-dimethyl-N-(6-(trifluoromethyl)-2,3-dihydrobenzofuran-3-yl)imidazo[1,5-a]quinoxaline-8-carboxamide], the CC50 was under 100 nM.
`Cc1ncn2c1c(N)nc1cnc(C(=O)N3CCC[C@@H]4Oc5c(ccc(OC(F)(F)F)c5F)[C@@H]43)cc12` [Fg-62, (4-amino-3-methylimidazo[1,5-a]pyrido[3,4-e]pyrazin-8-yl)((4aS,9bS)-6-fluoro-7-(trifluoromethoxy)-3,4,4a,9b-tetrahydrobenzofuro[3,2-b]pyridin-1(2H)-yl)methanone] showed a CC50 of under 100 nM.
`Nc1nc2cc(F)c(C(=O)N3CCO[C@@H]4Cc5cc(C(F)(F)F)cc(F)c5[C@@H]43)cc2n2cncc12` [Ff-539, (4-amino-7-fluoroimidazo[1,5-a]quinoxalin-8-yl)((4aS,9aR)-5-fluoro-7-(trifluoromethyl)-2,3,9,9a-tetrahydroindeno[2,1-b][1,4]oxazin-4(4aH)-yl)methanone] was tested, and the CC50 was under 100 nM.
`CCN(C(=O)c1cc2c(cc1F)nc(N)c1cncn12)[C@@H](C)c1ccc(C(F)(F)F)cn1` [Ff-543, (S)-4-amino-N-ethyl-7-fluoro-N-(1-(5-(trifluoromethyl)pyridin-2-yl)ethyl)imidazo[1,5-a]quinoxaline-8-carboxamide] showed a CC50 of under 100 nM.

Same assay, conditions: Homo sapiens, HCT-116; cell viability, HCT116 MTAP-deleted; class symbols; read-out: CC50
`Nc1nc2cc(F)c(C(=O)N(Cc3ccc(C(F)(F)F)cn3)c3cnn(C(F)F)c3)cc2n2cncc12` [Ff-311, 4-amino-N-(1-(difluoromethyl)-1H-pyrazol-4-yl)-7-fluoro-N-((5-(trifluoromethyl)pyridin-2-yl)methyl)imidazo[1,5-a]quinoxaline-8-carboxamide] gave a CC50 of under 100 nM.
Work on `CN(C(=O)c1cc2c(cn1)nc(N)c1cncn12)[C@H]1c2ccc(C(F)(F)F)cc2[C@@H]2C[C@@H]21` [Ff-254, 4-amino-N-methyl-N-((1aR,6R,6aS)-3-(trifluoromethyl)-1,1a,6,6a-tetrahydrocyclopropa[a]inden-6-yl)imidazo[1,5-a]pyrido[3,4-e]pyrazine-8-carboxamide] yielded a CC50 of 100 to 1000 nM.
`CN(C(=O)c1cc2c(cc1F)nc(N)c1cncn12)C1COc2c1ccc1c2OC(F)(F)O1` (stereo not shown) [Ff-156, 4-amino-N-(2,2-difluoro-6,7-dihydro-[1,3]dioxolo[4,5-g]benzofuran-6-yl)-7-fluoro-N-methylimidazo[1,5-a]quinoxaline-8-carboxamide] was tested, and the CC50 was 100 to 1000 nM.
`Nc1nc2cc(F)c(C(=O)N(Cc3ccc(C(F)(F)F)cn3)c3ccccc3)cc2n2cncc12` [Ff-277, 4-amino-7-fluoro-N-phenyl-N-((5-(trifluoromethyl)pyridin-2-yl)methyl)imidazo[1,5-a]quinoxaline-8-carboxamide] gave a CC50 of under 100 nM.
`Cc1ncc2c(N)nc3cc(F)c(C(=O)N4CCOC[C@@H]4c4ccc(C(F)(F)F)cc4)cc3n12` [Ff-92, (S)-(4-amino-7-fluoro-1-methylimidazo[1,5-a]quinoxalin-8-yl)(3-(4-(trifluoromethyl)phenyl)morpholino)methanone] showed a CC50 of under 100 nM.
`C[C@@H]1COC[C@H](c2ccc(C(F)(F)F)cn2)N1C(=O)c1cc2c(cc1F)nc(N)c1cncn12` [Ff-131, (4-amino-7-fluoroimidazo[1,5-a]quinoxalin-8-yl)((3R,5S)-3-methyl-5-(5-(trifluoromethyl)pyridin-2-yl)morpholino)methanone] showed a CC50 of under 100 nM.
`Cc1ncc2c(N)nc3ccc(C(=O)N4CCC5(CC4)COc4ccccc45)cc3n12` [Ff-61, (4-amino-1-methylimidazo[1,5-a]quinoxalin-8-yl)(2H-spiro[benzofuran-3,4′-piperidin]-1′-yl)methanone] gave a CC50 of over 1000 nM.
Compound `C[C@H](c1ccc(C(F)(F)F)cn1)N(C(=O)c1cc2c(cc1F)nc(N)c1cncn12)C1CC1` [Ff-153, (R)-4-amino-N-cyclopropyl-7-fluoro-N-(1-(5-(trifluoromethyl)pyridin-2-yl)ethyl)imidazo[1,5-a]quinoxaline-8-carboxamide] has a CC50 of under 100 nM.
With `CC1CN(C(=O)c2cc3c(cc2F)nc(N)c2cncn23)[C@H]2c3cc(F)ccc3C[C@H]2O1` (stereo partly drawn) [Ff-327, (4-amino-7-fluoroimidazo[1,5-a]quinoxalin-8-yl)((4aS,9aR)-6-fluoro-2-methyl-2,3,9,9a-tetrahydroindeno[2,1-b][1,4]oxazin-4(4aH)-yl)methanone] the CC50 was under 100 nM.
With `CN(C(=O)c1cc2c(cc1F)nc(N)c1cncn12)C1CCc2nc(Cl)sc21` (stereo not shown) [Ff-16, 4-amino-N-(2-chloro-5,6-dihydro-4H-cyclopenta[d]thiazol-6-yl)-7-fluoro-N-methylimidazo[1,5-a]quinoxaline-8-carboxamide] the CC50 was 100 to 1000 nM.
`CN(C(=O)c1cc2c(cc1F)nc(N)c1cncn12)[C@H]1c2ccc(C(F)(F)F)cc2[C@@H]2C[C@@H]21` [Ff-253, 4-amino-7-fluoro-N-methyl-N-((1aR,6R,6aS)-3-(trifluoromethyl)-1,1a,6,6a-tetrahydrocyclopropa[a]inden-6-yl)imidazo[1,5-a]quinoxaline-8-carboxamide] was tested, and the CC50 was 100 to 1000 nM.
Compound `CN(C(=O)C1CC1)N(Cc1cc(F)c(F)cc1F)C(=O)c1cc2c(cc1F)nc(N)c1cncn12` [Fa-8, 4-amino-N′-(cyclopropanecarbonyl)-7-fluoro-N′-methyl-N-(2,4,5-trifluorobenzyl)imidazo[1,5-a]quinoxaline-8-carbohydrazide] has a CC50 of under 100 nM.
`CC1(C)C[C@@H]2Oc3cc(C(F)(F)F)ccc3[C@@H]2N(C(=O)c2cc3c(cn2)nc(N)c2cncn23)C1` (racemic) [Ff-258, Rac-(4-aminoimidazo[1,5-a]pyrido[3,4-e]pyrazin-8-yl)((4aR,9bR)-3,3-dimethyl-7-(trifluoromethyl)-3,4,4a,9b-tetrahydrobenzofuro[3,2-b]pyridin-1(2H)-yl)methanone] gave a CC50 of under 100 nM.
With `[2H]C([2H])([2H])N(C(=O)c1cc2c(cc1F)nc(N)c1cncn12)[C@@H]1COc2cc(C(F)(F)F)ccc21` [Ff-47, 4-amino-7-fluoro-N-(methyl-d3)-N-(6-(trifluoromethyl)-2,3-dihydrobenzofuran-3-yl)imidazo[1,5-a]quinoxaline-8-carboxamide] the CC50 was under 100 nM.
`Cn1cc(N(Cc2ccc(-c3cnn(C(F)(F)F)c3)cc2F)C(=O)c2cc3c(cc2F)nc(N)c2cncn23)cn1` [Ff-220, 4-amino-7-fluoro-N-(2-fluoro-4-(1-(trifluoromethyl)-1H-pyrazol-4-yl)benzyl)-N-(1-methyl-1H-pyrazol-4-yl)imidazo[1,5-a]quinoxaline-8-carboxamide] gave a CC50 of under 100 nM.
`Nc1nc2cc(F)c(C(=O)N3CCO[C@@H]4Cc5cc(C(F)(F)F)c(F)cc5[C@@H]43)cc2n2cncc12` [Ff-326, (4-amino-7-fluoroimidazo[1,5-a]quinoxalin-8-yl)((4aS,9aR)-6-fluoro-7-(trifluoromethyl)-2,3,9,9a-tetrahydroindeno[2,1-b][1,4]oxazin-4(4aH)-yl)methanone] was tested, and the CC50 was under 100 nM.
For `Nc1nc2cc(F)c(C(=O)N3CCO[C@H]4Cc5cc(Br)ccc5[C@H]43)cc2n2cncc12` (single isomer, unassigned) [Ff-75], the CC50 was 100 to 1000 nM.
